# From publication PMC8381248 (Frontiers in Pharmacology, 2021)
# Tests used:
# [1] = test system: PE-constricted aortic rings; test: Vasorelaxant effects on isolated PE-constricted aortic rings; set-up: species or system SD rats; conditions: 10^–6 M PE, n = 6
# Protocol: SD rats were anesthetized by exposure to ether, and the thoracic aorta was removed and immersed in Krebs-Henseleit (K-H) buffer ([Lee et al., 2013]) at 4°C. The connective tissues and fats around the aorta were carefully removed under the microscopes, and the blood was flushed. The aorta ring was cut into four sections approximately 3 mm long and suspended in organ chambers containing K-H buffer. The endothelium was also removed by gently rubbing the lumen of the vessel with a cotton swab. The aortic rings were placed in a 5 ml organ chambers of DMT multiwire myograph system (620M, Danish Myo Technology, Denmark) and were filled with K-H buffer aerated with 95% O2 and 5% CO2 at 37°C. The aortic rings were mounted on hooks connected to a tension transducer and a displacement device.
# The initial vessel tension was slowly adjusted to 15 mN and maintained balanced for 60 min. The buffer was renewed once every 15 min. After equilibration, the vessel viability was pre-constricted by exposing the aortic rings to 60 mM KCl for 10 min ([Ding et al., 2019]). Then, the K-H buffer was continuously renewed to elute and restore the initial tension of the vascular ring to assay the vascular activity. The pre-treated operation was repeated two times, where the constriction amplitude after each KCl stimulation to reach the previous constriction amplitude was taken as the criterion, before the experiment continued. Subsequently, 10^–6 M PE was added to contract the blood vessel. After the constriction was stable, different concentrations of Ach (10^−9–10^–5 M) were used to dilate the vessels. Then, the vasorelaxation degree could be calculated with different Ach concentrations, as the following equation: Vasorelaxation degree (%)=Maxium constriction tension induced by PE−Minium diastolic tension induced by Ach/Maxium constriction tension induced by PE−Resting tension×100% (10) When the vasorelaxation degree corresponding to Ach (10^–5 M) is greater than 80%, the vascular endothelium is considered intact and functional. The endothelium is considered to be removed with a vasorelaxation degree of less than 20% ([Lee et al., 2013]). Endothelium-intact and endothelium-denuded aortic rings from the same aorta were tested.
# After equilibration, the endothelium-intact and the endothelium-denuded aortic rings were pre-constricted with 10^–6 M PE in the K-H buffer system.
# After equilibration, the endothelium-intact aortic rings were pre-constricted with 10^–6 M PE in the K-H buffer system. […] Then, the corresponding vasoconstrictive responses were examined and recorded.
# In the vasorelaxant effects investigations, all the data are presented as mean ± SEM. Statistical analysis was performed using two-way ANOVA followed by Fisher’s least significant difference (LSD) test. Values at p < 0.05 were considered statistically significant.
# [2] = Urinary excretion study after intravenous administration; assay type: in vivo, Sprague-Dawley (SD) rats; conditions: IV 5 mg/kg; for excretion amount in urine: rat
# Protocol: Eighteen male SD rats were housed in the barrier rodent facilities to acclimatize for a week in animal quarters, which had air conditioning and an automatically controlled photoperiod of 12 h of light daily. Rats had free access to standard chow diet and water until 12 h prior to the beginning of the experiment, at which time only water was accessed freely. The rats were randomly divided into six groups, with three rats in each group.
# A series of calibration standard working solutions (20.0, 10.0, 2.0, 1.0, 0.2, 0.04, and 0.02 μg/ml) was prepared freshly by diluting the stock solution stepwise using ACN-water (70:30, v/v). […] The IS working solutions of 200 ng/ml of tolbutamide or 50 ng/ml of diclofenac sodium were prepared by dilution of the stock standard solution with acetonitrile solution. All the solutions were stored at 4°C and brought to room temperature before use.
# QC samples (3, 40, 800, and 1,600 ng/ml) were prepared separately. For PDG urine samples, the calibration standards were prepared by spiking 5 μL of the appropriate standard working solutions of PDG to 95 μL blank rat urine to prepare the final urine concentration of PDG ranging from 1 ng/ml to 2000 ng/ml. QC samples (3, 40, 800, and 1,600 ng/ml) were prepared separately. […] QC samples (15, 30, 400, and 1,600 ng/ml) were prepared separately.
# Urine samples were collected while the rats remained isolated in metabolic cages at intervals of 0, 2, 4, 8, 24, and 30 h after administration, and the volumes of the urine were measured. The urine samples were also stored at −20°C before tested by LC-MS/MS. For the urine calibration standards, QC urine samples, and the testing urine samples, 100 µL of the urine samples were extracted with 300 µL of methyl tert-butyl ether (MTBE) by vortex mixing for 1 min and centrifuged at 4°C for 10 min at 13,000 rpm. Then, 200 µL of the supernatant was separated and evaporated under a gentle stream of nitrogen. The residue was reconstituted with 120 µL of 30% ACN with 5 µL of IS working solution ([…]), followed by vortex mixing for 10 min.
# Linear gradient elution was performed with certain portions of 10 mM ammonium acetate-water solution containing 0.1% formic acid (mobile phase A) and methanol (mobile phase B). The detailed conditions have been described in Support Materials (Supplementary Table S5).
# in vitro = conditions: microsomes
# Protocol: Then, this incubation plate containing mixed solution and NADPH regeneration system was agitated on a plate shaker at 100 rpm and pre-incubated at 37°C for 5 min. Subsequently, 300 μL of precooled quenching solution was added to each well of another deep-well plate (quench plate), which was cooled on ice. The solution in the incubation plate was transferred into the well of the quench plate as the samples in 0 min before it was mixed with another 20 µL of NADPH regeneration solution in the wells.
# The incubation plate was incubated at 37°C for 0, 10, 30, and 90 min. At each time point, 100 μL of the supernatant in the incubation plate was removed from each well, quenched immediately, transferred to the wells of the ice-cold quench plate, and vortexed for 5 min. Additionally, an equal volume of pre-warmed fresh regeneration solution was added to the incubation plate for compensation after every withdrawal. […] Each test was operated in duplicate. The determination conditions of LC-MS/MS are shown in Support Materials (Supplementary Table S4).
# The in vitro T1/2 was determined by converting the analyte/IS peak area ratios to percentage of drug remaining using the initial peak (t = 0 min) area ratio values as 100%.
smiles,measurement,setting,value
"COc1cc(C2OCC3C(c4ccc(OC5OC(CO)C(O)C(O)C5O)c(OC)c4)OCC23)ccc1OC1OC(CO)C(O)C(O)C1O (single isomer, unassigned; (+)) [PDG, (+)-1-pinoresinol 4,4′-di-O-β-D-glucopyranoside]",vasorelaxant effect on PE-constricted aortic rings,[1]; increasing concentration 25–200 μM,concentration-dependent vasorelaxation
same,"vasorelaxation degree, endothelium-denuded versus endothelium-intact group",[1]; PINL difference at 50–100 μM,not statistically significant
same,"cumulative urinary excretion, % of the dose","[2]; rat urine, for 30 h",approximately 78.24%
same,Cumulative Excretion Amount,"[2]; rat urine, within 30 h, n = 3","807,789.5 ± 65,828.8 ng"
same,excretion amount in urine,"[2]; 0–2 h, n = 3","503,669.8 ± 292,869.4 ng"
same,excretion amount in urine,"[2]; 2–4 h, n = 3","274,878.3 ± 236,625.8 ng"
same,excretion amount in urine,"[2]; 4–8 h, n = 3","989.1 ± 1,053.6 ng"
same,excretion amount in urine,"[2]; 8–24 h, n = 3","2,596.9 ± 1776.4 ng"
same,excretion amount in urine,"[2]; 24–30 h, n = 3",245.1 ± 173.0 ng
same,excretion amount in urine,"[2]; Wash, n = 3","25,410.3 ± 5,874.3 ng"
same,half-life,in vitro; human,16.7 h
same,half-life at 5 µM,in vitro; human,16.7 h
same,microsomal CLint,in vitro; human,1.4 µL/min/mg
same,half-life,in vitro; rat,17.3 h
same,half-life at 5 µM,in vitro; rat,17.3 h
same,microsomal CLint,in vitro; rat,1.3 µL/min/mg
